Measured values from PubChem BioAssay (NCI).
Several values for one entry are separate records, joined by “and”; a condition that tells them apart may be missing. Equal values may be shown once.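 48-hour exposure; five concentrations; linearly interpolated endpoints. Abbreviation: GI50, concentration required for 50% inhibition of growth. At the TGI there is no net growth.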

Key:
Assay in all cases: NCI tumour cell line growth inhibition, 48 h
[1] = test system: SW-620 colon
[2] = test system: SK-MEL-28 melanoma
[3] = test system: SF-539 CNS
[4] = test system: SF-268 CNS
[5] = test system: OVCAR-4 ovarian
[6] = test system: COLO 205 colon
[7] = test system: 786-0 renal
[8] = test system: CAKI-1 renal
[9] = test system: MOLT-4 leukemia
[10] = test system: M14 melanoma

Row | Compound | GI50 [1] | TGI [1] [µM] | GI50 [2] | TGI [2] | GI50 [3] | TGI [3] [µM] | GI50 [4] | TGI [4] [µM] | GI50 [5] | TGI [5] [µM] | GI50 [6] | TGI [6] | GI50 [7] | TGI [7] | GI50 [8] | TGI [8] | GI50 [9] | TGI [9] [µM] | GI50 [10] | TGI [10]
1 | NC(=O)c1ccc2c(-c3ccnc(NCCCO)n3)c(-c3ccc(F)cc3)nn2c1 | > 25 µM | > 25 | > 25 µM | > 25 µM | > 25 µM | > 25 | > 22.2 µM | > 25 | > 25 µM | > 25 | > 20.6 µM | > 25 µM | > 25 µM | > 25 µM | > 25 µM | > 25 µM | > 25 µM | > 25 | > 25 µM | > 25 µM
2 | O=C([CH-]C(=O)c1ccccc1)c1ccccc1.O=C([CH-]C(=O)c1ccccc1)c1ccccc1.O=C([CH-]C(=O)c1ccccc1)c1ccccc1.[OH3+].[Y+3] | 5.14 µM | 22.8 | 10.8 µM | 40.2 µM | 9.27 µM | 43.1 | 4.8 µM | 31 | 8.77 µM | 46 | 13.2 µM | 30.9 µM | 4.72 µM | 21.8 µM | 5.68 µM | 26.8 µM | 2.96 µM | 20.5 | 9.36 µM | 22 µM
3 | O=P([O-])(O)OP(=O)([O-])O.[NH-][C@@H]1CCCC[C@H]1[NH-].[Pt+4] | 4.85 µM and 0.659 µM | > 100 | 14.1 µM and 5.74 µM | > 100 µM and 61.8 µM | 18.6 µM and 8.47 µM | > 100 | 60.6 µM and 6.27 µM | > 100 | > 75.1 µM and 11.2 µM | > 100 | 6.13 µM and 6.32 µM | > 100 µM and 21.5 µM | 20.6 µM and 7.98 µM | > 100 µM and 76.6 µM | 6.41 µM and 5.25 µM | > 100 µM and 41.7 µM | 5.9 µM and 3.29 µM | > 100 | 38.9 µM and 14.8 µM | > 100 µM
4 | COC(=O)c1c2c(c(C)[n+]([O-])c1C)C(=O)C=C(NCc1ccc(OC)cc1)C2=O | 1.08 µM | 4.08 | 3.2 µM | 10 µM | 1.77 µM | 4.36 | 2.24 µM | 8.27 | 0.655 µM | 1.79 | 0.831 µM | 2.45 µM | 5.48 µM | 23.3 µM | 1.5 µM | 6.81 µM | 1.55 µM | 5.3 | 1.92 µM | 4.3 µM
5 | CCCN1CCN(c2ccc3nc(-c4ccc5nc(-c6cc(OC)ccc6OC)[nH]c5c4)[nH]c3c2)CC1 | 1.86 µM | 3.57 | 18.9 µM | 35.9 µM | 14.4 µM | 28.7 | 18.6 µM | 43 | 1.98 µM | 3.85 | 2.17 µM | 4.83 µM | 1.93 µM | 3.41 µM | 15.9 µM | 30.7 µM | 2.09 µM | 4.31 | 1.78 µM | 3.31 µM
6 | COc1c(Cl)c2c(c(OC)c1OC)-c1ccc(SC)c(=O)cc1[C@@H](NC(=O)OCC(F)(F)F)CC2 | < 0.01 µM | > 100 | 5.99 µM | > 100 µM | < 0.01 µM | < 0.01 | < 0.0105 µM | > 90.5 | 0.0889 µM | > 100 | < 0.01 µM | 0.0314 µM | < 0.01 µM | > 30.4 µM | < 0.0227 µM | > 56.8 µM | < 0.01 µM | > 100 | < 0.01 µM | 
7 | CCCn1c(SCC)c2cc3cc4ccccc4cc3cc2c1-c1nc(F)nc(F)n1 |  | > 100 |  | > 100 µM |  | > 100 |  | > 100 |  | > 100 |  | > 100 µM |  | > 100 µM |  | > 100 µM |  | > 100 |  | > 100 µM
8 | Cn1nc(-c2ccccc2)nc1[N+](=O)[O-] |  | > 10 |  | > 10 µM |  | > 10 |  | > 10 |  | > 10 |  | > 10 µM |  | > 10 µM |  | > 10 µM |  | > 10 |  | > 10 µM
9 | CN(C)C1CCN(C(=O)c2ccc(NC(=O)Nc3ccc(-c4nc(N5CCOCC5)nc(N5CCOCC5)n4)cc3)cc2)CC1 | 0.0346 µM and 0.0689 µM and 0.03 µM |  | 0.0231 µM and 0.0392 µM and 0.0159 µM | 0.245 µM and 0.248 µM and 0.144 µM | < 0.0129 µM and 0.0143 µM and 0.0416 µM |  | 0.0229 µM and 0.0207 µM and 0.0434 µM |  | < 0.01 µM and 0.00776 µM and 0.0127 µM |  | 0.0136 µM and 0.0334 µM and 0.012 µM | 0.155 µM and 0.545 µM and 0.188 µM | 0.237 µM and 0.136 µM and 0.571 µM | 2.82 µM and 2.5 µM and 8.53 µM | 4.16 µM and 1.49 µM and 0.496 µM |  | 0.0311 µM and 0.018 µM and 0.0772 µM |  | 0.23 µM and 0.144 µM and 0.0298 µM | 5.24 µM and 2.5 µM and 1.17 µM
10 | O=C1c2ccccc2C2(O)NC(=S)N(c3ccccc3)C12O (stereo not drawn) |  | > 100 |  | > 100 µM |  | > 100 |  | > 100 |  | > 100 |  | > 100 µM |  | > 100 µM |  | > 100 µM |  | > 100 |  | > 100 µM
11 | COc1cc(C=Nc2ccc(C(C)C)cc2)cc(OC)c1OC |  | > 54.6 |  | > 100 µM |  | > 100 |  | > 100 |  | > 100 |  | > 100 µM |  | > 100 µM |  | > 100 µM |  | > 100 |  | > 100 µM
12 | COc1ccc2c(CN3CCC[C@H]3C(=O)O)cc3cc4c(cc3c2c1)OCO4 | 5.15 µM | 70.4 | 15.5 µM | 36.8 µM | 10.7 µM | 29.5 | 9.87 µM | 67.1 | 19.2 µM | 61.4 | 6.3 µM | 46.2 µM | 16.2 µM | > 100 µM | 25 µM | 88.6 µM | 5.33 µM | > 100 | 13.3 µM | 27.3 µM
13 | CCOc1ccc(Nc2nc(-c3ccc4c(c3)NC(=O)CO4)cs2)cc1 | 19.6 µM | > 100 | 4.29 µM | 19.6 µM | 16.1 µM | > 100 | 36.7 µM | > 100 | 3.51 µM | > 100 | 11.1 µM | 33.6 µM | 14.3 µM | > 100 µM | 19 µM | 90.7 µM | 2.01 µM | 5.28 | 4.33 µM | 17.4 µM
14 | CCOC(=O)C1=C(Nc2ccc(Cl)cc2Cl)OC/C1=N\NS(=O)(=O)c1ccc(C)cc1 |  | > 100 |  | > 100 µM |  | > 100 |  | > 100 |  | > 100 |  | > 100 µM |  | > 100 µM |  | > 100 µM |  | > 100 |  | > 100 µM
15 | O=C1c2cc([N+](=O)[O-])ccc2-c2cccc(F)c21 |  | > 100 |  | > 100 µM |  | > 100 |  | > 100 |  | > 100 |  | > 100 µM |  | > 100 µM |  | > 100 µM |  | > 100 |  | > 100 µM
